In paper doi:10.1101/577908v1, “Host metabolic reprogramming of Pseudomonas aeruginosa by phage-based quorum sensing modulation” (biorxiv, 2019):

What was measured:
[1] = biological target: T1, Qst (Pseudomonas phage LUZ19, UniProt A9J759); assay: DTNB end-point assay of CoA release; 1H-NMR; assay type: biochemical; conditions: 1 mM acetyl-CoA, 2 mM 3-methyl-2-oxobutanoic acid, MgCl2, pH 7.5, 37 °C
T1 construct: gene gp4; His-tagged (pEXP5-CT/TOPO), expressed in E. coli BL21(DE3), HisTrap purified; predicted 13 kDa
T1 sequence (A9J759 1-122): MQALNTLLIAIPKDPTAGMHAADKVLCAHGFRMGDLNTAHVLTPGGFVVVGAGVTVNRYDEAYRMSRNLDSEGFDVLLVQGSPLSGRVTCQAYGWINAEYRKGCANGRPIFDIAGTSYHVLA

[2] = biological target: T2, PA1217 (Pseudomonas aeruginosa, UniProt Q9I4C1); assay: DTNB end-point assay of CoA release; 1H-NMR; assay type: biochemical; conditions: 1 mM acetyl-CoA, 2 mM 3-methyl-2-oxobutanoic acid, MgCl2, pH 7.5, 37 °C
T2 construct: full-length, GST-tagged (pGEX-6P-1), expressed in E. coli BL21(DE3), GSTrap purified; tag removal not mentioned
T2 sequence (Q9I4C1 1-455): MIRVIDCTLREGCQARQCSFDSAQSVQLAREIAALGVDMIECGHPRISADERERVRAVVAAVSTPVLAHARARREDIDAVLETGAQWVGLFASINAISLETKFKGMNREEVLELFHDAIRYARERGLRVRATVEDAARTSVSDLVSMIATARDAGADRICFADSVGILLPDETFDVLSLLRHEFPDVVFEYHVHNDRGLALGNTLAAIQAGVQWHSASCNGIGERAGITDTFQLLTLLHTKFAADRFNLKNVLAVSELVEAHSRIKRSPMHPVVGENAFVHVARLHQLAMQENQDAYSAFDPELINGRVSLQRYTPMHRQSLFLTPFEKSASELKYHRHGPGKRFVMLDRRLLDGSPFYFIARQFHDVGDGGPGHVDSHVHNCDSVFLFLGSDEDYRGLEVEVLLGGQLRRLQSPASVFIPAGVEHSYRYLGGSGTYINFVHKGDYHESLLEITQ

## CC(=O)SCCNC(=O)CCNC(=O)[C@H](O)C(C)(C)COP(=O)(O)OP(=O)(O)OC[C@H]1O[C@@H](n2cnc3c(N)ncnc32)[C@H](O)[C@@H]1OP(=O)(O)O [acetyl-CoA]
[1]
  DTNB end-point assay of CoA release; 1H-NMR: Qst was also able to consume acetyl-CoA
[2]
  DTNB end-point assay of CoA release; 1H-NMR: products were only formed by LeuA, while PA1217 merely consumed acetyl-CoA
